Test results taken from patent publication US6150359A, “Naphthyridinones for inhibiting protein tyrosine kinase and cell cycle kinase mediated cellular proliferation” (Warner-Lambert Company, priority 2000, dated 2000).

How the values were obtained:
HCT-8 cells = test: Human Colon Carcinoma Clonogenic Assay, HCT-8; type: cell-based; conditions: HCT-8, 2 days with drug, colonies after approximately 2 weeks
Method: Human Colon Carcinoma Clonozenic Assay. Human colon carcinoma cells are seeded into 6 well plates in volumes of 3 mL and allowed to incubate overnight (37° C., 5% CO2, 95% air). SW-620 cells are seeded at 7×10^5 per well; HCT-8 cells are seeded at 5×10^5 per well; HT-29 cells are seeded at 4×10^5 cells per well. Serially diluted drugs are prepared at 200 times the final concentration, and 15 μL are added to each of duplicate wells. Cells are incubated with drug for 2 days, rinsed once with 1 mL of trypsin+EDTA, and then trypsinized with the same trypsin solution. After trituration and centrifugation at 750×g for 3 minutes, the cells are suspended in serum-free growth medium and counted using an electronic particle counter. An agarose mixture appropriate for the cloning of each cell line is made using 10% fetal bovine serum in growth medium (SW-620-0.35% agarose, HCT-8 and HT-29-0.4% agarose). […] One; milliliter of each of these cell suspensions is added to duplicate wells of 6 well plates previously prepared with 10% serum/growth medium/1% agarose plugs. The cells in these plates are incubated for approximately 2 weeks in the incubator and stained with 1 mL per well of 1 mg/mL iodonitrotetrazolium violet stain. The visible colonies are counted with an electronic optical colony counter and the clonogenicity of treated cells calculated in comparison to untreated control cells.

PDGF receptor = target: T1, PDGF receptor (Rattus norvegicus, UniProt Q05030); test: PDGF Receptor Autophosphorylation Assay in rat aorta smooth muscle cells; type: cell-based; conditions: PDGF-BB 30 ng/mL, 5 minutes, 2 hours preincubation, read-out: Inhibition of PDGF-Stimulated Receptor Autophosphorylation IC50
T1 construct: endogenous in cells; host or cells: rat aorta smooth muscle cells, primary culture, passages 5 to 20
T1 sequence (Q05030 32-1097): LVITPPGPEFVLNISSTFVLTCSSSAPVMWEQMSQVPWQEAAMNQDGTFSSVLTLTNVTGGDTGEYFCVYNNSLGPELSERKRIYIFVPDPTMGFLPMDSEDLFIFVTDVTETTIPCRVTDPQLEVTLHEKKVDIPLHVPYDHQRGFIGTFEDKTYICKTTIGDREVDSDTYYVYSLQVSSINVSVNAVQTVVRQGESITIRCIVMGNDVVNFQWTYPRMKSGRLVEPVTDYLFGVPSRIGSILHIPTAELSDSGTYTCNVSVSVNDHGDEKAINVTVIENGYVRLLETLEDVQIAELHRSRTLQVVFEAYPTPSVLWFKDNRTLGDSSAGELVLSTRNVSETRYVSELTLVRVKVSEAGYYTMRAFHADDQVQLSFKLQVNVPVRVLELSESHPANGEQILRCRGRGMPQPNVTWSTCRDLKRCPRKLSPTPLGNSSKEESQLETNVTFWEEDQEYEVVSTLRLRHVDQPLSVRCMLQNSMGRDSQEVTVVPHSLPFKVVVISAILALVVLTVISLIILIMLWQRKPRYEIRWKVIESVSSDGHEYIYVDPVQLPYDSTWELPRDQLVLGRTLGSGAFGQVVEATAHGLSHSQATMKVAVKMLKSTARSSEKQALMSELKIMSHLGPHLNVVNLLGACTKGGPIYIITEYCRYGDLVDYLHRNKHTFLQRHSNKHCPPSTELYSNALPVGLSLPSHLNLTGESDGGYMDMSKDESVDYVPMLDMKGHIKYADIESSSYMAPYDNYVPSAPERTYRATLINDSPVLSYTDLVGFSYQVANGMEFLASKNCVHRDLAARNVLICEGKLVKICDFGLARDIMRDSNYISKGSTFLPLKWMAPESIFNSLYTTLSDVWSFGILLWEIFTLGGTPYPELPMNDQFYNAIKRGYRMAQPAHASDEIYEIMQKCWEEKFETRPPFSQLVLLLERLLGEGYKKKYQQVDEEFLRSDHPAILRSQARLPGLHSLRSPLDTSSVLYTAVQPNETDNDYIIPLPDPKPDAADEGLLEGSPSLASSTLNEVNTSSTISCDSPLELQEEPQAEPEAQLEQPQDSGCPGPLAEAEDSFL
Method: PDGF Receptor Autophosphorylation Assay. Rat aorta smooth muscle cells (RASMC.) are isolated from the thoracic aorta of rats and explanted according to the method of Ross, J. Cell. Biol., 1971;30:172-186. Cells are grown in Dulbecco's modified Eagle's medium (DMEM, Gibco) containing 10% fetal calf serum (FBS, Hyclone, Logan, Utah), 1% glutamine (Gibco), and 1% penicillin/streptomycin (Gibco). Cells are identified as smooth muscle cells by their "hill and valley" growth pattern and by fluorescent staining with a monoclonal antibody specific for SMC […] (Sigma). RASMC are used between passages 5 and 20 for all experiments. Test compounds are prepared in dimethylsulfoxide (DMSO) in order to achieve consistency in the vehicle and to ensure compound solubility. Appropriate DMSO controls are simultaneously evaluated with the test compounds.
Rat aortic smooth muscle cells are grown to confluency in 100 mm dishes. Growth medium is removed and replaced with serum-free medium, and cells are incubated at 37° C. for an additional 24 hours. Test compounds are then added directly to the medium and cells incubated for an additional 2 hours. After 2 hours, PDGF-BB is added at a final concentration of 30 ng/mL for 5 minutes at 37° C. to stimulate autophosphorylation of PDGF receptors. Following growth factor treatment, the medium is removed, and cells are washed with cold phosphate-buffered saline and immediately lysed with 1 mL of lysis buffer (50 mM Hepes, pH 7.5, 150 mM NaCl, 10% glycerol, 1% Triton-X 100, 1 mM EDTA, 1 mM EGTA, 50 mM NaF, 1 mM sodium orthovanadate, 30 mM p-nitrophenyl phosphate, 10 mM sodium pyrophosphate, 1 mM phenylmethyl sulfonyl fluoride, 10 μg/mL aprotinin, and 10 μg/mL leupeptin). Lysates are centrifuged at 10,000×g for 10 minutes. Supernatants are incubated with 10 μL of rabbit anti-human PDGF type AB receptor antibody (1:1000) for 2 hours. Following the incubation, protein-A-sepharose beads are added for 2 hours with continuous mixing, and immune complexes bound to the beads washed four times with 1 mL lysis wash buffer. Immune complexes are solubilized in 40 μL of Laemmli sample buffer and electrophoresed in 8% to 16% SDS polyacrylamide gels. […] Following extensive washing with PBS-0.2% tween-20, the blots are incubated with horseradish peroxidase labeled goat anti-mouse IgG (1:5000; Bio-Rad Inc., Hercules, Calif.), and protein levels are detected by enhanced chemiluminescence (ECL) detection system according to the instructions of the supplier (Amersham Inc., Arlington Heights, Ill.). The density of the protein bands are determined using NIH Image software (v. 1.56) and IC50 values are generated from the densitometric data.

insulin receptor (INSr) = target: T2, insulin receptor (INSr) (Homo sapiens, UniProt P06213); test: Insulin receptor (INSr) kinase assay; type: biochemical; conditions: 10 mM manganese chloride
T2 construct: An assay using the intracellular kinase domains of insulin receptor (INSr)
T2 sequence (P06213 1023-1298 limits assumed, species assumed): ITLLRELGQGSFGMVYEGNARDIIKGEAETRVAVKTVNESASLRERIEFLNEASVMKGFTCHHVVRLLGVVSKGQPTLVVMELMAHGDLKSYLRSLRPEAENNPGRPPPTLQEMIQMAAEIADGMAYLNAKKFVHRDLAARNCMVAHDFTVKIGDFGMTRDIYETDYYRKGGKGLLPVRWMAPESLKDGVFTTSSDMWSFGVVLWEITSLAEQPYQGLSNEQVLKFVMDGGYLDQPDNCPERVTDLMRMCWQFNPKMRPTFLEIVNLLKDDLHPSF
Method: EGFr. Enzyme assays for IC50 determinations are performed in 96-well filter plates (Millipore MADVN6550). The total volume is 0.1 mL containing 20 mM Hepes, pH 7.4, 50 μM sodium vanadate, 40 mM magnesium chloride, 10 μM ATP containing 0.5 μCi of [^32 P]ATP, 20 μg of polyglutamic acid/tyrosine (Sigma Chemical Co., St. Louis, Mo.), 10 ng of EGF receptor tyrosine kinase and appropriate dilutions of inhibitor. All components except the ATP are added to the well, and the plate is incubated with shaking for 10 minutes at 25° C. The reaction is started by adding [^32 P]ATP, and the plate is incubated at 25° C. for 10 minutes. The reaction is terminated by addition of 0.1 mL of 20% trichloroacetic acid (TCA). The plate is kept at 4° C. for at least 15 minutes to allow the substrate to precipitate. The wells are then washed five times with 0.2 mL of 10% TCA, and ^32 P incorporation is determined with a Wallac beta plate counter.
Other Kinases. An assay using the intracellular kinase domains of insulin receptor (INSr) is performed as described for the EGF receptor except that 10 mM manganese chloride is included in the reaction. The PKC assay is performed as previously described by Martiny-Baron, et al., J. Biol. Chem., 1993;268:9194-9197.

SMILES	IC50 (HCT-8 cells) [µM]	IC50 (PDGF receptor) [µM]	IC50 (insulin receptor (INSr)) [µM]
CN1CCN(CCCNc2cc3c(cn2)cc(-c2c(Cl)cccc2Cl)c(=O)n3C)CC1 [Example H, 3-(2,6-dichlorophenyl)-1-methyl-7-[3-(4-methylpiperazin-1-yl)propylamino]-1H-[1,6]naphthyridin-2-one]	> 5	> 10	> 50
CN1CCN(CCOc2ccc(Nc3cc4c(cn3)cc(-c3c(Cl)cccc3Cl)c(=O)n4C)cc2)CC1 [Example S, 3-(2,6-dichlorophenyl)-1-methyl-7-[(4-(2-(4-methylpiperazin-1-yl)ethoxy)phenyl)amino]-1H-[1,6]naphthyridin-2-one]	–	0.81	–
CCN(CC)CCOc1ccc(Nc2cc3c(cn2)cc(-c2c(Cl)cccc2Cl)c(=O)n3C)cc1 [Example P, 3-(2,6-dichlorophenyl)-7-[(4-(2-(diethylamino)ethoxy)phenyl)amino]-1-methyl-1H-[1,6]naphthyridin-2-one]	> 5	0.23	> 50
CCN(CC)CCCCNc1cc2c(cn1)cc(-c1c(Cl)cccc1Cl)c(=O)n2C [Example F, 3-(2,6-dichlorophenyl)-7-[4-(diethylamino)butylamino]-1-methyl-1H-[1,6]naphthyridin-2-one]	> 5	0.49	> 50
